Assay results reported in patent US5565469A, “Benzimidazoles and pharmaceutical compositions containing them” (Dr. Karl Thomae GmbH, priority 1994, dated 1996).

Molecular target: T1, Angiotensin-II-receptor (Rattus norvegicus, UniProt P25095)
T1 construct: The tissue (rat's lung) is homogenised in tris buffer; from tissue; host or cells: rat lung homogenate
T1 sequence (P25095 1-359): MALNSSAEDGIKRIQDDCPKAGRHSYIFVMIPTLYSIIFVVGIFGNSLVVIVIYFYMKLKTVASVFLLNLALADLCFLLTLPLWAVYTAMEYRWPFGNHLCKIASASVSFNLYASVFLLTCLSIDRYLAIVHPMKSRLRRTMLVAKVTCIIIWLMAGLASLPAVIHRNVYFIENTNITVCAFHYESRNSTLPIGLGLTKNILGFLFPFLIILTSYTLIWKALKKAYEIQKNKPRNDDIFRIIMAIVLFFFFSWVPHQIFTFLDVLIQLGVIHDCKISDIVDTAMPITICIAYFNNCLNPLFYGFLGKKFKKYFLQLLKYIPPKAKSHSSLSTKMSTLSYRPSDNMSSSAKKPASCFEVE
Assay: Angiotensin-II-receptor binding (rat lung homogenate, [^125 I]-angiotensin-II displacement)
Conditions: rat's lung homogenate; 50 pM [^125 I]-angiotensin-II; 60 minutes at 37° C.; pH 7.40
Experimental: The tissue (rat's lung) is homogenised in tris buffer (50 mMol Tris, 150 mMol NaCl, 5 mMol EDTA, pH 7.40) and centrifuged twice for 20 minutes each time at 20,000×g. The resulting pellet is resuspended in incubation buffer (50 mMol Tris, 5 mMol MgCl2, 0.2% BSA, pH 7.40) 1:75, based on the moist weight of the tissue. Each 0.1 ml of homogenate is incubated for 60 minutes at 37° C. with 50 pM [^125 I]-angiotensin-II (NEN, Dreieich, FRG) and increasing concentrations of the test substance in a total volume of 0.25 ml. The incubation is terminated by rapid filtration through glass fibre filter mats. The filters are each washed with 4 ml of ice cold buffer (25 mMol Tris, 2.5 mMol MgCl2, 0.1% BSA, pH 7.40). The bound radioactivity is measured in a gamma-counter. The corresponding IC50 value is determined from the dosage-activity curve.

IC50 | SMILES
110 nM | CCCc1nc2c(C)cc(-c3nc4ccccc4n3C)cc2n1Cc1ccc(-c2ccccc2S(=O)(=O)NC(=O)NCc2ccc(OC)cc2)cc1 [F]
36 nM | CCc1nc2c(C)cc(-c3cn4c(n3)CCCC4)cc2n1Cc1ccc(-c2ccccc2S(=O)(=O)NC(=O)c2ccccc2)cc1 [I]
310 nM | CCCc1nc2c(C)cc(-c3nc4ccccc4n3C)cc2n1Cc1ccc(-c2ccccc2S(=O)(=O)NC(=O)NC2CCCCC2)cc1 [G]
40 nM | CCCc1nc2c(C)cc(-c3nc4ccccc4n3C)cc2n1Cc1ccc(-c2ccccc2NC(=O)C(F)(F)F)cc1 [D]
78 nM | CCCc1nc2c(C)cc(-c3nc4ccccc4n3C)cc2n1Cc1ccc(-c2ccccc2S(=O)(=O)NC(=O)c2ccccc2)cc1 [H]
8 nM | CCCc1nc2c(C)cc(-c3nc4ccccc4n3C)cc2n1Cc1ccc(-c2ccccc2S(=O)(=O)O)cc1 [B]
3.4 nM | CCc1nc2c(C)cc(-c3cn4c(n3)CCCC4)cc2n1Cc1ccc(-c2ccccc2S(=O)(=O)O)cc1 [C]
13.9 nM | CCCCc1nc2c(C)cc(N3CCCS3(=O)=O)cc2n1Cc1ccc(-c2ccccc2S(=O)(=O)NC(=O)c2ccccc2)cc1 [J]
94 nM | CCCc1nc2c(C)cc(-c3nc4ccccc4n3C)cc2n1Cc1ccc(-c2ccccc2C=C2SC(=O)NC2=O)cc1 [A]
28 nM | CCc1nc2c(C)cc(-c3cn4c(n3)CCCC4)cc2n1Cc1ccc(-c2ccccc2NC(=O)C(F)(F)F)cc1 [E]
73 nM | CCc1nc2c(C)cc(-c3cn4c(n3)CCCC4)cc2n1Cc1ccc(-c2ccccc2S(=O)(=O)NC(=O)NC2CCCCC2)cc1 [K]
